pIC50: −log10 of the molar value.
How the values were obtained:
Hepatocyte = test: Cytotoxicity against Macaca mulatta hepatocytes assessed as cell viability measured after 48 hrs by MTT assay; type: toxicity, cell-based; details: rhesus monkey, 48 h
Plasmodium cynomolgi [1] = test: (§1) Antiplasmodial activity against schizont Plasmodium cynomolgi B strain infected in Macaca mulatta hepatocytes incubated with sporozoite containing salivary gland homogenate obtained from dissected Anopheles dirus mosquitoes (infected with Plasmodium cynomolgi B strain) treatment started on day 4 post infection and continued daily for 4 days into fresh changed media until day 8 assessed as Liver stage (LS) activity by measuring radical cure mode by immunofluorescent staining analysis; type: functional, organism-based; details: Hepatocyte
[2] = as §1, with “Selectivity index, ratio of CC50 for Macaca mulatta hepatocytes to IC50 for antiplasmodial” for “Antiplasmodial”; type: toxicity, cell-based; details: rhesus monkey, read-out: Selectivity Index
Plasmodium falciparum [3] = test: Antiplasmodial activity against asexual blood-stage (ABS) CQ-sensitive Plasmodium falciparum D6 infected in human erythrocytes assessed as reduction in fluorescence measured after 72 hrs by Malaria SYBR Green I-based Fluorescence (MSF) assay; type: functional, organism-based; details: D6, Erythrocyte
[4] = mouse, microsomes, 1 h
[5] = as §1, with “Selectivity index, ratio of CC50 for Macaca mulatta hepatocytes to IC50 for antiplasmodial” for “Antiplasmodial”, “hypnozoite” for “schizont”, “prophylactic” for “radical cure”; type: toxicity, cell-based; details: rhesus monkey, read-out: Selectivity Index
[6] = as §1, with “Selectivity index, ratio of CC50 for Macaca mulatta hepatocytes to IC50 for antiplasmodial” for “Antiplasmodial”, “prophylactic” for “radical cure”; type: toxicity, cell-based; details: rhesus monkey, read-out: Selectivity Index
Plasmodium cynomolgi [7] = test: as §1, with “hypnozoite” for “schizont”, “prophylactic” for “radical cure”; type: functional, organism-based; details: Hepatocyte
Plasmodium falciparum [8] = test: Antiplasmodial activity against asexual blood-stage (ABS) ATV-resistant clinical isolate Plasmodium falciparum Tm90-C2B infected in human erythrocytes assessed as reduction in fluorescence measured after 72 hrs by Malaria SYBR Green I-based Fluorescence (MSF) assay; type: functional, organism-based; details: Erythrocyte
Plasmodium cynomolgi [9] = test: as §1, with “hypnozoite” for “schizont”; type: functional, organism-based; details: Hepatocyte
Plasmodium cynomolgi [10] = test: as §1, with “prophylactic” for “radical cure”; type: functional, organism-based; details: Hepatocyte
HepG2 = test: Cytotoxicity against human HepG2 cells assessed as cell viability measured after 48 hrs by MTT assay; type: functional, cell-based; details: HepG2, 48 h
Plasmodium falciparum [11] = test: Antiplasmodial activity against asexual blood-stage (ABS) MDR Plasmodium falciparum Dd2 infected in human erythrocytes assessed as reduction in fluorescence measured after 72 hrs by Malaria SYBR Green I-based Fluorescence (MSF) assay; type: functional, organism-based; details: Dd2, Erythrocyte
[12] = human, microsomes, 1 h
[13] = as §1, with “Selectivity index, ratio of CC50 for Macaca mulatta hepatocytes to IC50 for antiplasmodial” for “Antiplasmodial”, “hypnozoite” for “schizont”; type: toxicity, cell-based; details: rhesus monkey, read-out: Selectivity Index

SMILES	CC50 (Hepatocyte) [µM]	pIC50 (Plasmodium cynomolgi [1])	selectivity ratio at 96 h [2]	pIC50 (Plasmodium falciparum [3])	CLH [4] [µL/min/mg]	selectivity ratio at 96 h [5]	selectivity ratio at 96 h [6]	pIC50 (Plasmodium cynomolgi [7])	pIC50 (Plasmodium falciparum [8])	pIC50 (Plasmodium cynomolgi [9])	pIC50 (Plasmodium cynomolgi [10])	pIC50 (HepG2)	pIC50 (Plasmodium falciparum [11])	t1/2 [12] [h]	selectivity ratio at 96 h [13]
O=c1c2ccc(OC3CCNCC3)cc2[nH]c2cc(F)cc(Cl)c12	> 20	4.86	> 1.45	7.57	72.1	> 3.36	> 4.92	5.23	< 5.60	< 4.70	5.39	4.31	7.50	> 1	–
CO[C@@H]1[C@@H](OC)[C@H](C)[C@@](O)(CC(=O)O)O[C@H]1[C@H](C)[C@H]1O[C@@]2(CC[C@@](C)([C@H]3CC[C@@](C)([C@@H]4O[C@@H]([C@H]5O[C@](C)(O)[C@H](C)C[C@@H]5C)C[C@@H]4O[C@@H]4C[C@H](OC)[C@@H](OC)[C@H](C)O4)O3)O2)C[C@H](O)[C@H]1C [MADURAMICIN ACID]	2.36	7.40	59	–	–	236	78.7	8.00	–	7.52	7.52	–	–	–	78.7
O=c1c2ccc(OCc3cccc(C(F)(F)F)c3)cc2[nH]c2ccc(Cl)c(F)c12	> 20	5.82	> 13.1	12.52	15.6	> 50	> 250	6.40	6.93	5.66	7.10	< 3.70	12.40	> 1	> 9.13
O=c1c2ccc(Oc3ccccc3OC(F)(F)F)cc2[nH]c2cc(Cl)cc(F)c12	9.21	5.38	2.19	11.30	72.3	6.72	115	5.86	7.54	5.34	7.10	< 3.70	11.30	–	2.02
O=c1c2ccc(Oc3ccc(OC(F)(F)F)cc3)cc2[nH]c2ccc(Cl)c(F)c12	4.58	5.68	2.17	9.72	< 3.125	11.4	91.6	6.40	6.56	5.39	7.30	< 3.70	9.70	> 1	1.11
O=c1c2ccc(OC3CCNCC3)cc2[nH]c2cc(Cl)cc(F)c12	–	–	–	6.18	–	–	–	–	< 5.60	–	–	4.42	6.92	–	–
COc1ccc(Oc2ccc3c(=O)c4c(F)cc(Cl)cc4[nH]c3c2)cc1	10.8	6.03	11.5	13.23	< 3.125	2.4	22	5.35	7.74	5.22	6.31	< 3.70	13.54	> 1	1.79
CN1CCC(Oc2ccc3c(=O)c4c(F)cc(Cl)cc4[nH]c3c2)CC1	> 20	5.01	> 2.02	7.95	209.5	> 3.51	> 37	5.24	< 5.60	4.74	6.27	4.25	7.64	–	> 1.1
O=c1c2ccc(OCc3cccc(OC(F)(F)F)c3)cc2[nH]c2ccc(Cl)c(F)c12	> 20	5.49	> 6.13	12.54	21.8	> 83.3	> 333	6.62	6.74	5.71	7.22	< 3.70	12.40	> 1	> 10.3
CC(C)(C)OC(=O)N1CCC(Oc2ccc3c(=O)c4c(Cl)cc(F)cc4[nH]c3c2)CC1	4.73	5.40	1.2	7.44	< 3.125	3.45	31.5	5.86	< 5.60	5.35	6.82	4.04	7.34	> 1	1.06
O=c1c2ccccc2[nH]c2cc(Oc3ccc(OC(F)(F)F)cc3)ccc12	3.16	5.74	1.72	10.72	11.5	2.01	5.85	5.80	8.48	5.52	6.27	< 3.70	10.52	–	1.05
O=c1c2cccc(Oc3ccc(OC(F)(F)F)cc3)c2[nH]c2cc(Cl)cc(F)c12	> 20	< 4.70	–	6.42	25.5	> 1.47	> 6.01	4.87	< 5.60	< 4.70	5.48	4.03	6.73	> 1	–
O=c1c2c(F)cc(Cl)cc2[nH]c2cccc(Oc3ccc(OC(F)(F)F)cc3)c12	> 20	4.78	> 1.2	7.06	45.4	–	> 2.71	< 4.70	< 5.60	< 4.70	5.13	3.72	6.73	> 1	–
O=c1c2ccc(Oc3ccc(OC(F)(F)F)cc3)cc2[nH]c2cc(Cl)c(F)cc12	> 20	< 4.70	–	7.84	177	> 15.5	> 74.1	5.89	5.82	< 4.70	6.57	< 3.70	7.95	> 1	–

From ChEMBL document CHEMBL6134844, “Development of Next-Generation Antimalarial Acridones with Radical Cure Potential” (J Med Chem, 2025)
